Experimental data reported in patent publication US8815233B2, “Method for treating pervasive development disorders” (Curemark LLC, priority 1999, dated 2014).

Columns and labels:
autistic children [1] = experiment: Fecal Chymotrypsin Test after secretin infusion in autistic children; format: in vivo, human
Procedure: In this experiment, 16 children diagnosed as having autism were administered the following Fecal Chymotrypsin Test in accordance with an embodiment of the invention. First, approximately 2 grams of stool were collected from each child and placed in a sterile container (although it is to be understood that any quantity of stool may be collected, as 2 grams of stool is not a required amount). Each stool sample was then analyzed using, e.g., an enzymatic photospectrometry analysis as is known by those skilled in the art, to determine the level of fecal chymotrypsin in the stool. Although the enzymatic photospectrophotometry process is preferred, any suitable conventional method may be used for measuring the fecal chymotrypsin levels. The measured chymotrypsin levels of the 16 autistic children are illustrated in FIG. 13.
After determining the chymotrypsin levels of the stools, each of these levels were compared with threshold chymotrypsin levels to determine if the child was likely to benefit from secretin administration. By way of example, with the fecal chymotrypsin tests of the stool samples being performed at 30° C., normal levels of chymotrypsin are deemed to lie above 8.4 U/gram, whereas pathologically abnormal levels are deemed to lie below 4.2 U/gram. In addition, chymotrypsin levels between 8.4 U/gram and 4.2 U/gram are considered equivocal, and further testing of the individual's fecal chymotrypsin levels over a period of time should be performed.
(§1) For each of the 16 autistic children tested, a preferred secretin infusion process according to the present invention was performed involving the administering of 1 U/kg of body weight of Secretin-Ferring for a period of nine months at intervals of approximately 6 weeks. In addition, another CARS test was administered to each of the 16 autistic children 3 weeks post secretin administration to determine if their autism had changed post infusion.
A preferred secretin infusion process includes the initial step of prepping an arm of the candidate child with an IV injection of saline. A test dose of 1 U of Secretin-Ferring is then administered to the child. Approximately one minute after infusion, the child is examined for signs of allergic reaction including rash, increased heart rate, and increase of blood pressure. […] Subsequently, each child receives a 1 U/kg of body weight infusion of Secretin-Ferring approximately every 6 weeks for 9 months. […]
In this experiment, 37 autistic children with abnormal fecal chymotrypsin levels were administered secretin over the course of 6 months using the secretin infusion process described above. Their fecal chymotrypsin (FC) levels were measured weekly using the fecal chymotrypsin test described above.

[2] = test system: children diagnosed with Autism; settings: Horvath et al. 1998; secretin given as diagnostic procedure during upper gastrointestinal endoscopy; cited from earlier work
autistic children [3] = experiment: CARS (Childhood Autism Rating Scale) test pre/post secretin in autistic children; format: in vivo, human; settings: 16 autistic children
Procedure: Upon determining that a given child was likely to benefit from secretin administration based on the results of the fecal chymotrypsin test, the child was administered a CARS (Childhood Autism Rating Scale) test prior to being scheduled for secretin infusion.
as §1
A preferred secretin infusion process includes the initial step of prepping an arm of the candidate child with an IV injection of saline. A test dose of 1 U of Secretin-Ferring is then administered to the child. Approximately one minute after infusion, the child is examined for signs of allergic reaction including rash, increased heart rate, and increase of blood pressure. […] Subsequently, each child receives a 1 U/kg of body weight infusion of Secretin-Ferring approximately every 6 weeks for 9 months. It is to be understood that any commercially available form of secretin may be used.

With secretin the “fecal chymotrypsin level post-secretin administration” value (autistic children [1]; each of 16 autistic children, approx. one week after first infusion, 1 U/kg IV Secretin-Ferring, vs pre-secretin (all abnormal)) was “increased”, the “# Autistic Children w/Equivocal FC levels” value (autistic children [1]; of 37 children, 6 months post-secretin, pre-secretin 0, equivocal 4.2-8.4 U/gram) was 2 and the “# Autistic Children w/normal FC levels” value (autistic children [1]; of 37 children, 6 months post-secretin, pre-secretin 0, normal above 8.4 U/gram) was 34. For the same substance, the “# Autistic Children w/Abnormal FC levels” value (autistic children [1]; of 37 children, 6 months post-secretin, pre-secretin 37, abnormal below 4.2 U/gram) was 1, the “symptoms associated with Autism after secretin administration” value [2] was “ameliorating the symptoms associated with Autism” and the “CARS component scores (except fear)” value (autistic children [3]; 3 weeks post secretin infusion) was “improvement”. For the same substance, the “CARS fear component score” value (autistic children [3]; 3 weeks post secretin infusion) was “increased” and the “CARS scores (overall)” value (autistic children [3]; approx. 3 weeks after first secretin administration, 1 U/kg IV, vs pre-secretin) was “overall decrease”.
